Values after ≈ are worked out from the molar mass of the structure shown.
Columns and labels:
HeLa = experiment: Cytotoxicity against human HeLa cells after 3 days by MTT assay; type: functional; conditions: 72 h, read-out: ED50 (the source's name)
HEp-2 = experiment: Cytotoxicity against human Hep2 cells after 3 days by MTT assay; type: functional; conditions: HEp-2, 72 h, read-out: ED50 (the source's name)
MCF7 = experiment: Cytotoxicity against human MCF7 cells after 3 days by MTT assay; type: functional; conditions: MCF7, 72 h, read-out: ED50 (the source's name)
Daoy = experiment: Cytotoxicity against human DaOY cells after 3 days by MTT assay; type: functional; conditions: 72 h, read-out: ED50 (the source's name)
[1] = molecular target: T1, Nitric oxide synthase, inducible (Mus musculus, UniProt P29477); experiment: Inhibition of iNOS in mouse BV2 microglial cells assessed as NO production; type: cell-based
T1 sequence (P29477 whole entry): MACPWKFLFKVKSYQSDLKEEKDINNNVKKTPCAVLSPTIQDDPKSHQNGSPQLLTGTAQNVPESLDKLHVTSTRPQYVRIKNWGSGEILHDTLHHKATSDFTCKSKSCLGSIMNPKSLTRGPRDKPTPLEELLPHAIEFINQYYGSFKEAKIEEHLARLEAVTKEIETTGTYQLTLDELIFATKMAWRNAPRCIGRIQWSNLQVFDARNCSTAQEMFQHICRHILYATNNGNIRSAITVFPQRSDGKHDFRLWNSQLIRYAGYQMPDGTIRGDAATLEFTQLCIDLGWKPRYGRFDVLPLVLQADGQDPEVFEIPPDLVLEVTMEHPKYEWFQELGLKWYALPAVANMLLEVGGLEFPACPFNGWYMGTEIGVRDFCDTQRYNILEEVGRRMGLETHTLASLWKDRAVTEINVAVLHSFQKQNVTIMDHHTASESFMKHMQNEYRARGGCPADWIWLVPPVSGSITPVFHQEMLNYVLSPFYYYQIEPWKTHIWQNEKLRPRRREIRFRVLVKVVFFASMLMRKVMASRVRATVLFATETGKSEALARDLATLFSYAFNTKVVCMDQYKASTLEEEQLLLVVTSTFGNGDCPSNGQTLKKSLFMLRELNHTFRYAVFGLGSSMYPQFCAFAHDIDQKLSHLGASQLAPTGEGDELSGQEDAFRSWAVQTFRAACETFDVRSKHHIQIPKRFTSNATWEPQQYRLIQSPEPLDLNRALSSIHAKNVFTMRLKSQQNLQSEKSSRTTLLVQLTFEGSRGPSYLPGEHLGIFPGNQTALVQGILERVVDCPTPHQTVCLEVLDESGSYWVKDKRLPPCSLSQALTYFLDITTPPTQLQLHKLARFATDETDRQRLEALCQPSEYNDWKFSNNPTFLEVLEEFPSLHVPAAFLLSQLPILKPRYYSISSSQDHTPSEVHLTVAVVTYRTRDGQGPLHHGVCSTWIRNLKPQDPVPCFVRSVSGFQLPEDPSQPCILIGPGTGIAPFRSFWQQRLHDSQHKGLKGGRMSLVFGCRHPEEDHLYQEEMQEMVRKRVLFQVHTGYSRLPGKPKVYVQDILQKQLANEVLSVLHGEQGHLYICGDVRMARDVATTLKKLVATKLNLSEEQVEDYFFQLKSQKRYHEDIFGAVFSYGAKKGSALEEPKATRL

[2] = Inhibition of NOX in fMLP-induced PMN cells assessed as ROS production
[3] = Inhibition of mouse NOX activity in NADPH-induced mouse BV2 microglial cells assessed as ROS production; conditions: BV-2

Structure (SMILES) | EC50 (HeLa) | EC50 (HEp-2) | EC50 (MCF7) | EC50 (Daoy) | IC50 [1] | IC50 [2] | IC50 [3]
c1cc2c(cc1[C@H]1OC[C@H]3[C@@H]1CO[C@@H]3c1ccc3c(c1)OCO3)OCO2 [SESAMIN] | > 20 µg/mL | > 20 µg/mL | > 20 µg/mL | > 20 µg/mL | – | – | –
CC(C)[C@@H](C)/C=C/[C@@H](C)[C@H]1CC[C@H]2C3=CC=C4C[C@@H](O)CC[C@]4(C)[C@H]3CC[C@]12C [ERGOSTEROL] | – | – | – | – | 30.6 µM | 27.9 µM | –
C=C(CC[C@@H](C)[C@H]1CC[C@H]2C3=C(C(=O)C[C@]12C)[C@@]1(C)CCC(=O)[C@@H](C)[C@@H]1CC3=O)C(C)C(=O)O (stereo not given in full) [ZHANKUIC ACID A] | > 20 µg/mL | 16.6 µg/mL (≈ 35.4 µM) | > 20 µg/mL | > 20 µg/mL | 3.6 µM | 22.1 µM | –
C=C(CC[C@@H](C)[C@H]1CC[C@H]2C3=C(C(=O)C[C@]12C)[C@@]1(C)CC[C@@H](O)[C@@H](C)[C@@H]1CC3=O)C(C)C(=O)O (stereo not given in full) [ZHANKUIC ACID B] | > 20 µg/mL | > 20 µg/mL | > 20 µg/mL | > 20 µg/mL | 9.6 µM | – | –
COc1c(C)c(-c2c(C)c(OC)c3c(c2OC)OCO3)c(OC)c2c1OCO2 | > 20 µg/mL | > 20 µg/mL | > 20 µg/mL | > 20 µg/mL | – | 15.5 µM | –
C=C(CC[C@@H](C)[C@H]1CC[C@H]2C3=C(C(=O)C[C@]12C)[C@@]1(C)CCC(=O)[C@@H](C)[C@@H]1CC3=O)C(C)C(=O)OC (stereo not given in full) [ZHANKUIC ACID A METHYL ESTER] | > 20 µg/mL | > 20 µg/mL | > 20 µg/mL | > 20 µg/mL | 0.6 µM | 8.4 µM | –
C=C(CC[C@@H](C)[C@H]1CC[C@H]2C3=C(C(=O)C[C@]12C)[C@@]1(C)CCC(=O)[C@@H](C)[C@@H]1CC3)C(C)C(=O)OC (stereo not given in full) [METHYLANTCINATE A] | > 20 µg/mL | > 20 µg/mL | > 20 µg/mL | > 20 µg/mL | 1.5 µM | 16.2 µM | –
C=C(C)C#Cc1c(C)c(OC)c(OC)c2c1OCO2 [BENZOCAMPHORIN B] | – | – | – | – | – | 14.4 µM | –
COc1cc(C)c(OC)c2c1OCO2 | > 20 µg/mL | > 20 µg/mL | > 20 µg/mL | > 20 µg/mL | – | 19.9 µM | –
C=C(C)C#Cc1c(OC)cc(OC)c(OC)c1C [ANTROCAMPHIN A] | 6.9 µg/mL (≈ 28 µM) | 10.5 µg/mL (≈ 42.6 µM) | 3.4 µg/mL (≈ 13.8 µM) | 5.9 µg/mL (≈ 24 µM) | 7.2 µM | 15.1 µM | 50.1 µM
C=C(CC[C@@H](C)[C@H]1CC[C@H]2C3=C(C[C@H](O)[C@]12C)[C@@]1(C)CC[C@@H](O)[C@@H](C)[C@@H]1CC3=O)C(C)C(=O)OC (stereo not given in full) [METHYL ANTCINATE H] | > 20 µg/mL | > 20 µg/mL | > 20 µg/mL | > 20 µg/mL | 2.5 µM | 18.1 µM | –
C[C@H](/C=C/[C@H](C)[C@H](C)CO)[C@H]1CC[C@H]2C3=CC[C@H]4CC(=O)CC[C@]4(C)[C@H]3CC[C@]12C [CAMPHORATIN I] | – | – | – | – | 12.7 µM | 17.5 µM | –
C=C(CC[C@@H](C)[C@H]1CC[C@H]2C3=C(C(=O)[C@H](O)[C@]12C)[C@@]1(C)CC[C@@H](O)[C@@H](C)[C@@H]1CC3=O)C(C)C(=O)O (stereo not given in full) [ZHANKUIC ACID C] | > 20 µg/mL | > 20 µg/mL | > 20 µg/mL | > 20 µg/mL | 16.2 µM | – | –
OC1O[C@@H](c2ccc3c(c2)OCO3)[C@@H]2CO[C@@H](c3ccc4c(c3)OCO4)[C@H]12 (stereo not given in full) [4-HYDROXYSESAMIN] | > 20 µg/mL | > 20 µg/mL | > 20 µg/mL | > 20 µg/mL | – | – | –
C=C(CC[C@@H](C)[C@H]1CC[C@H]2C3=C(C(=O)C[C@]12C)[C@@]1(C)CCC(=O)[C@@H](C)[C@@H]1CC3)C(C)C(=O)O (stereo not given in full) [ANTCIN A] | > 20 µg/mL | > 20 µg/mL | 13.3 µg/mL (≈ 29.3 µM) | 13.2 µg/mL (≈ 29 µM) | 4.1 µM | 29.2 µM | –
C=C(CC[C@@H](C)[C@H]1CC[C@H]2C3=C(C(=O)C[C@]12C)[C@@]1(C)CCC(=O)[C@@H](C)[C@@H]1C[C@@H]3O)C(C)C(=O)OC (stereo not given in full) [CAMPHORATIN F] | 8.9 µg/mL (≈ 18.4 µM) | 3 µg/mL (≈ 6.19 µM) | 7.9 µg/mL (≈ 16.3 µM) | 4.4 µg/mL (≈ 9.08 µM) | 2.5 µM | 11.2 µM | –
CC(C)[C@@H](C)/C=C/[C@@H](C)[C@H]1CC[C@@H]2[C@]1(C)CC[C@H]1[C@]23C=C[C@]2(C[C@@H](O)CC[C@]12C)OO3 [ERGOSTEROL PEROXIDE] | – | – | – | – | – | 20.3 µM | –
C=C(CC[C@@H](C)[C@H]1CC[C@H]2C3=C(C(=O)C[C@]12C)[C@@]1(C)CC[C@@H](O)[C@@H](C)[C@@H]1C[C@@H]3O)C(C)C(=O)O (stereo not given in full) [CAMPHORATIN B] | – | – | – | – | 15.7 µM | 32.1 µM | –
C=C(CC[C@@H](C)[C@H]1CC[C@@H]2C3=C(C(=O)C[C@@]21C)[C@@]1(C)CCC(=O)[C@@H](C)[C@@H]1CC3)C(C)C(=O)OC (stereo not given in full) [CAMPHORATIN J] | 11.3 µg/mL (≈ 24.1 µM) | > 20 µg/mL | 8.7 µg/mL (≈ 18.6 µM) | > 20 µg/mL | 1.6 µM | 15.8 µM | –
C=C(CC[C@@H](C)[C@H]1CC[C@H]2C3=C(C(=O)C[C@]12C)[C@@]1(C)CC[C@@H](O)[C@](C)(O)[C@@H]1C[C@@H]3O)C(C)C(=O)O (stereo not given in full) [ANTCIN K] | > 20 µg/mL | > 20 µg/mL | > 20 µg/mL | > 20 µg/mL | – | 47.2 µM | –
C=C(CC[C@@H](C)[C@H]1CC[C@H]2C3=C(C(=O)C[C@]12C)[C@@]1(C)CCC(=O)[C@@H](C)[C@@H]1C[C@@H]3O)C(C)C(=O)O (stereo not given in full) [CAMPHORATIN D] | > 20 µg/mL | > 20 µg/mL | > 20 µg/mL | > 20 µg/mL | 4.2 µM | 22.6 µM | –
C=C(CC[C@@H](C)[C@H]1CC[C@H]2C3=C(C(=O)C[C@]12C)[C@@]1(C)CC[C@@H](O)[C@@H](C)[C@@H]1CC3=O)C(C)C(=O)OC (stereo not given in full) [CAMPHORATIN E] | 9 µg/mL (≈ 18.6 µM) | 7 µg/mL (≈ 14.4 µM) | 6.6 µg/mL (≈ 13.6 µM) | 5.2 µg/mL (≈ 10.7 µM) | – | – | –

— ChEMBL document CHEMBL1641547, “Biologically active constituents from the fruiting body of Taiwanofungus camphoratus” (Bioorg Med Chem, 2011)
